Consider three molecules from patent US6660300B1, “Method of use of a biphasic controlled release delivery system for high solubility pharmaceuticals and method” (Bristol-Myers Squibb Co., priority 1998, dated 2003).

Where a name gives a salt, the structure may show the parent alone.

Data set [1] is described as follows: compaction susceptibility.
The nature of data set [2]: hygroscopicity at 95% relative humidity/25° C.
For data set [3] the following is noted: cited from earlier work.

With `CN(C)C(=N)N=C(N)N` [metformin (2:1) fumarate, Metformin (2:1) Fumarate], the compaction susceptibility result in data set [1] was “low”. Besides, the “hygroscopicity, moisture uptake” value in data set [2] (at 6 hours) is recorded as “less than 7%”.

As to `CN(C)C(=N)NC(=N)N` [metformin (2:1) succinate, Metformin (2:1) Succinate], the compaction susceptibility result in data set [1] is “low”. In data set [2] (at 30 minutes), the “hygroscopicity, moisture uptake” value was “less than 1%”.

For the molecule `CN(C)C(=N)N=C(N)N` [metformin], the “area under the plasma concentration-time profile, jejunum compared with ileum” value in data set [3] (drug perfused into jejunum versus ileum) is on record as 2.5 fold. The drug in plasma entry in data set [3] (drug perfused into the colon) is “not detectable”.
